Assay results: patent publication US6579519B2, “Sustained release and long residing ophthalmic formulation and the process of preparing the same” (Registrar, University of Delhi, priority 2000, dated 2003)

Assay: Maximum drug dissolved in polymeric micelles
Assay type: physicochemical
Details: room temperature
Description: In 100 mg of the lyophilized powder of the polymeric micelles nanoparticles, an alcoholic solution of indomethacin ([Indomethacin]=33 mg/ml) was added with constant stirring to get clear solution of polymeric micelles containing the drug of desired concentration dispersed in aqueous buffer. […] The drug loaded polymeric micelles was then lyophilized to get dry powder for subsequent use.
In 100 mg of dry powder of polymeric micelles, an alcoholic solution of nimesulide ([nimesulide]=10 mg/ml) was added with constant stirring to get clear solution. […] The drug loaded micelles was then lyophilized to get dry powder for subsequent use.

Row | Maximum of the drug dissolved in polymeric micelles [% w/w] | SMILES
1 | 10 | COc1ccc2c(c1)c(CC(=O)O)c(C)n2C(=O)c1ccc(Cl)cc1 [indomethacin, 1-(4 chlorobenzoyl)-5 methoxy-2-methyl-1H-indole-3acetic acid]
2 | 8 | CS(=O)(=O)Nc1ccc([N+](=O)[O-])cc1Oc1ccccc1 [nimesulide, N-(4-nitro-2 phenoxyphenyl) methanesulphonamide]
